Laboratory results taken from patent US20100009917A1, “Modulating Enzymatic Processes by Addition of Diolcontaining Substances” (priority 2007, published 2010).
Where two headings read alike, the source gives them in different places.

Target: T1, TGase MTG P2 (Streptomyces mobaraensis, UniProt P81453)
T1 construct: made in house; host or cells: E. coli
Assay type: biochemical, Streptovercilium mobaraense
Procedure: TGase: • (a) TGase Activa WM from Ajinomoto, 60 mg/ml in 20 mM Phosphate buffer pH 8.5. The Activa WM enzyme from Streptoverticillium mobaraense is formulated under dry form in maltodextrins and contains 1% w/w of protein) (6.7 μl)); or • (b) TGase MTG P2 from Streptovercilium mobaraense expressed in soluble form using E. coli as expression system was formulated in 20 mM NaPhosphate buffer, pH 6.0, with 2 mM DTT and 5 w/v % maltodextrin. The concentration of the enzyme was between 0.7 and 4.5 mg/ml.
Capillary electrophoresis (CE) was carried out using an Agilent Technologies 3D-CE system (Agilent Technologies). Data acquisition and signal processing were performed using Agilent Technologies 3DCE ChemStation. The capillary was a 64.5 cm (56.0 cm efficient length) 50 μm i.d. “Extended Light Path Capillary” from Agilent. UV detection was performed at 200 nm (16 nm Bw, Reference 380 nm and 50 nm Bw). The running electrolyte was phosphate buffer 50 mM pH7.0. The capillary was conditioned with 0.1M NaOH for 3 min, then with Milli-Q water for 2 min and with the electrolyte for 3 min.
After each run, the capillary was flushed with milli-Q water for 2 min, then with phosphoric acid for 2 min, and with milli-Q water for 2 min. The hydrodynamic injection was done at 50 mbar for 4.0 s. The voltage was +25 kV. The capillary temperature was 30 C and the runtime was 10.5 min.
To a 1M solution of […] in triethanolamine 20 mM pH8.6 buffer (14 μl) was added triethanolamine 20 mM pH8.6 buffer (20.6 μl), ethylene glycol (53.6 μl) (40% w/v)), and a solution of human growth hormone (50 mg/ml) in triethanolamine 20 mM pH8.6 buffer (40 μl). The reaction was started by the addition of the TGase MTG P2 solution (0.35 mg/ml, 5.8 μl). The reaction mixture was incubated at ambient temperature and followed on CE.
(§1) The reaction was carried out in an analogous manner to the above method using the following concentrations: • [hGH]=0.67 mM (14.9 mg/ml final concentration) • [1,3-diamino 2-propanol]=300 mM • Buffer: 20 mM Triethanolamine pH 8.6 • +/−Ethylene glycol 40% (v/v) • [TGase MTG P2]=0.39 μM
The reaction was carried out in an analogous manner to the above method using the following concentrations: • [hGH]=0.67 mM (14.9 mg/ml final concentration) • [1,3-diamino 2-propanol]=300 mM • Buffer: 20 mM Triethanolamine pH 8.6 • +/−Ethylene glycol 10-40% (v/v) • [TGase MTG P2]=0.39 μM
The reaction was carried out in an analogous manner to the above method using the following concentrations: • [hGH]=0.67 mM (14.9 mg/ml final concentration) • [1,3-diamino 2-propanol]=300 mM • Buffer: 20 mM Triethanolamine pH 8.6 • +/−Ethylene glycol 40% (v/v) • [TGase MTG P2]=0.39 μM or 0.16 μM
as §1, with “out with ethylene glycol, glycerol, propylene glycol and 1,3 propanediol” for “out”, “+/−enhancing compound 7.18 M” for “+/−Ethylene glycol 40% (v/v)”
The reaction was carried out with glycerol in an analogous manner to the above method, except for the fact that more enzyme was added after five hours of reaction time. The reaction used the following concentrations: • [hGH]=0.67 mM (14.9 mg/ml final concentration) • [1,3-diamino 2-propanol]=300 mM • Buffer: 20 mM Triethanolamine pH 8.6 • Glycerol 7.18 M • [TGase MTG P2]=0.39 μM then 1.17 μM at 5 hours

[1] = enhancing compound 7.18 M, TGase MTG P2 0.39 μM, FIG. 7

T1 sequence (P81453 77-407): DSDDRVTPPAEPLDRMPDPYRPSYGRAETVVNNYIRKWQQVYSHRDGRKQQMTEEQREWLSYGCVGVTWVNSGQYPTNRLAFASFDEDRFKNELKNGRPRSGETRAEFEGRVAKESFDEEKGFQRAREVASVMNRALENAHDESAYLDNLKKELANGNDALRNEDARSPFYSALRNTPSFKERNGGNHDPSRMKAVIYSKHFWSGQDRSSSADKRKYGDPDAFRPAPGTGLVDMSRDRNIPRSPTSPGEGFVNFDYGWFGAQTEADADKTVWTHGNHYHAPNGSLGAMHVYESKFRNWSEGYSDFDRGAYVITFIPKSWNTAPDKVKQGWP

OCC(O)CO [Glycerol, glycerol]
selectivity of the reaction: improved the selectivity of the reaction | side products (pos.40-TA-hGH and di-transaminated hGH) formed [1]: reduce the amount of side products | yield when more enzyme is added (glycerol 7.18 M, TGase MTG P2 0.39 μM then 1.17 μM at 5 hours, FIG. 8): can be increased

OCCCO [1,3 propanediol, reference compound]
effect on the enzyme reaction (1,3 propanediol 7.18 M, TGase MTG P2 0.39 μM, FIG. 7): completely inhibited the reaction

CC(O)CO (stereo not drawn) [Propylene glycol, propylene glycol]
yield, comparison of compounds of related structures [1]: next highest yield

OCCO [ethylene glycol]
product yield, varying enzyme concentration: highest product yield | yield of pos.141 TA-hGH with rising ethylene glycol concentration: increased yield | yield, comparison of compounds of related structures: highest yield | maximum yield of the desired pos.141-hGH (pH 8.6): 75%
